Measurements published in patent US5616573A, “Glucocorticoids” (Schering Aktiengesellschaft, priority 1993, dated 1997).
*1 amine or outer side, *2 acyl side, *3 side chain or, on linkers, in order; H or OH if unused. Where a SMILES comes first, the peptide text is derived from it. [ ]: non-standard residue; d: D form. The star is where a group is joined. Methylprednisolone(17-OCOEt) = CCC(=O)O[C@]1(C(=O)CO*)CC[C@H]2[C@@H]3C[C@H](C)C4=CC(=O)C=C[C@]4(C)[C@H]3[C@@H](O)C[C@@]21C; X2 = C[C@@H]1C[C@H]2[C@@H]3C[C@H](F)C4=CC(=O)C=C[C@]4(C)[C@H]3[C@@H](O)C[C@]2(C)[C@H]1C(=O)CO*; Phthalimidoacetyl = O=C1c2ccccc2C(=O)N1CC(=O)*; Diphenylacetyl = O=C(C(c1ccccc1)c1ccccc1)*; Fmoc = O=C(OCC1c2ccccc2-c2ccccc21)*; 2Naphthoyl = O=C(c1ccc2ccccc2c1)*; X6 = O=C(CCn1c2ccccc2c2ccccc21)*; X7 = O=S(=O)(c1ccc(Cl)cc1)*; X8 = c1ccc(N(c2ccccc2)*)cc1; MeOSuc = COC(=O)CCC(=O)*; Cbz = O=C(OCc1ccccc1)*; X4 = O=C(C=Cc1ccccc1)*; Boc = CC(C)(C)OC(=O)*; Aib = CC(C)(N)C(=O)O; CO = O=C([*:1])[*:2]; CH2Cl = ClC*

How the values were obtained:
rat ear = assay: Local antiinflammatory action: modified rat ear test according to Tonelli (croton oil); assay type: in vivo; settings: topical, * = significant (p < 0.05); for Edema [% inhibition]: ear weight, 16 hours after irritant; for Infiltration [% inhibition]: granulocytic infiltrate (myeloperoxidase and leukocyte-elastase), 16 hours
Method: The antiinflammatory activity of the corticoid-21-oligopeptide esters is performed in a modified rat ear test according to Tonelli. The modifications are based on changes of irritant solution (4% croton oil, 10% DMSO in ethanol), the type of administration (application of the solution with pipette) and the evaluation of the test 16 hours after administration of the irritant solution. At this time, both the inhibition of the edema by measuring the ear weight and the inhibition of the granulocytic infiltrate by measuring the granulocyte marker myeloperoxidase and leukocyte-elastase in the ear homogenate can be determined. The group size was 6 animals in each case.

Esterases of Rat Skin = assay: Cleavage in the Homogenate of Normal Rat Skin (unspecific cleavage by esterases of rat skin); assay type: in vitro ADME; settings: percent of hydrolysis rate of 6α-methylprednisolone-17-propionate-21-acetate; approximately 100 μmol/l, pH=7.4, 37° C.
Method: (§1) The homogenate of the skin of male rats (0.1 mol/l of phosphate buffer, pH=7.4) is centrifuged for 20 minutes at 10,000 g. The supernatant is adjusted in phosphate buffer to a protein concentration of 3 mg/ml. The test substances in 20 μl of ethanol are added to 1 ml of this homogenate. The final concentration of the corticoid derivatives is approximately 100 μmol/l. The incubation takes place for different periods at 37° C. At the end of incubation, the samples are extracted three times with 3 ml of chloroform. The combined extracts are evaporated to dryness under nitrogen and taken up with 100 μl of ethanol. The ethanolic solutions are mixed with the same volume of water and the saponification products are separated by HPLC (RP 18, acetonitrile/water-gradient, detection 240 nm). The relative hydrolysis rate is indicated in percent of the hydrolysis rate of the 6α-methylprednisolone-17-propionate-21-acetate.

Leukocyte Elastase = molecular target: T1, Leukocyte Elastase (Homo sapiens, UniProt P08246); assay: Cleavage of Glucocorticoid-21-Oligopeptide Esters by Leukocyte Elastase in the lysate of human neutrophilic granulocytes; assay type: biochemical; settings: for Relative Hydrolysis Rate [%]: lysate of human neutrophilic granulocytes, 10^6 cells per ml, 1 hour at 37° C., Fmoc-Ala-Ala-Pro-Val-O-MPP is used as reference
T1 construct: also pure human sputum elastase (Elastin Products)
T1 sequence (P08246 30-267): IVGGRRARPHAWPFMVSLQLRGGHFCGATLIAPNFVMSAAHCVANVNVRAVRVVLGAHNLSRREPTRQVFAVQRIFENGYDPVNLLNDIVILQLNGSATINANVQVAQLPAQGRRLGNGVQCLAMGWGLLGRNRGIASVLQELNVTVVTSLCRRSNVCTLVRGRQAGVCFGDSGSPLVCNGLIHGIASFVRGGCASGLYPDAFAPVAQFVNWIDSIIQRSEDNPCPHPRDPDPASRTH
Method: as §1
Polymorphonuclear granulocytes are isolated from donor blood. The cells are lysed in a density of 10^6 cells per ml. 1 ml each of the lysate is mixed with 20 μl of ethanolic corticoid solution (5 mmol/l) After 1 hour of incubation at 37° C., the samples are extracted three times with 3 ml of chloroform and worked up as described above for HPLC analysis. The cleavage of the prodrugs according to the invention can be inhibited under these test conditions by the addition of the specific elastase inhibitor MeO-succinyl-Ala-Ala-Pro-Val-chloromethylketone to 90%. Furthermore, the compounds are also hydrolyzed by pure human sputum-elastase (elastin products).

[1] = concentration 0.003 (unit not given)
[2] = concentration 0.03 (unit not given)
[3] = concentration 0.3 (unit not given)

## CCC(=O)O[C@]1(C(=O)COC(C)=O)CC[C@H]2[C@@H]3C[C@H](C)C4=CC(=O)C=C[C@]4(C)[C@H]3[C@@H](O)C[C@@]21C [6α-methylprednisolone-17-propionate-21-acetate, reference compound]
Rat ear; [1]
  Edema [% inhibition]: 44%
  Infiltration [% inhibition]: 12%
Rat ear; [2]
  Edema [% inhibition]: 62%
  Infiltration [% inhibition]: 45%
Rat ear; [3]
  Edema [% inhibition]: 67%
  Infiltration [% inhibition]: 78%
Esterases of Rat Skin
  Relative Hydrolysis Rate [%]: 100%

## CCC(=O)O[C@]1(C(=O)COC(=O)[C@@H](NC(=O)[C@@H]2CCCN2C(=O)[C@H](C)NC(=O)[C@H](C)NC(=O)OCc2ccccc2)C(C)C)CC[C@H]2[C@@H]3C[C@H](C)C4=CC(=O)C=C[C@]4(C)[C@H]3[C@@H](O)C[C@@]21C [Example 5, N-(N-(N-(N-(Phenylmethoxycarbonyl)-L-alanyl)-L-alanyl)-L-prolyl) -L-valine [11β21-dihydroxy-3,20-dioxo-6α-methyl-17-propionyloxy-pregna-1,4-dien-21-yl] ester] (Cbz-AAPV-{Methylprednisolone(17-OCOEt)})
Leukocyte Elastase
  Relative Hydrolysis Rate [%]: 160-230%

## CCC(=O)O[C@]1(C(=O)COC(=O)[C@@H](NC(=O)[C@@H]2CCCN2C(=O)[C@H](C)NC(=O)[C@H](C)NC(=O)C(c2ccccc2)c2ccccc2)C(C)C)CC[C@H]2[C@@H]3C[C@H](C)C4=CC(=O)C=C[C@]4(C)[C@H]3[C@@H](O)C[C@@]21C [Example 10, N-(N-(N-(N-((Diphenylmethyl)carbonyl)-L-alanyl)-L-alanyl)-L -prolyl)-L-valine [11β,21-dihydroxy-3,20-dioxo-6α-methyl-17-propionyloxy-pregna-1,4-dien-21-yl] ester] (Diphenylacetyl-AAPV-{Methylprednisolone(17-OCOEt)})
Esterases of Rat Skin
  Relative Hydrolysis Rate [%]: 6%

## CCC(=O)O[C@]1(C(=O)COC(=O)[C@@H](NC(=O)[C@@H]2CCCN2C(=O)[C@H](C)NC(=O)[C@H](C)NC(=O)N(c2ccccc2)c2ccccc2)C(C)C)CC[C@H]2[C@@H]3C[C@H](C)C4=CC(=O)C=C[C@]4(C)[C@H]3[C@@H](O)C[C@@]21C [Example 11, N-(N-(N-(N-(Diphenylcarbamoyl)-L-alanyl)-L-alanyl)-L-prolyl)-L-valine [11β,21-dihydroxy-3,20-dioxo-6α-methyl-17-propionyloxy-pregna-1,4-dien-21-yl] ester] ({X8-CO}-AAPV-{Methylprednisolone(17-OCOEt)})
Esterases of Rat Skin
  Relative Hydrolysis Rate [%]: 14%

## CCC(=O)O[C@]1(C(=O)COC(=O)[C@@H](NC(=O)[C@@H]2CCCN2C(=O)[C@H](C)NC(=O)[C@H](C)NC(=O)c2ccc3ccccc3c2)C(C)C)CC[C@H]2[C@@H]3C[C@H](C)C4=CC(=O)C=C[C@]4(C)[C@H]3[C@@H](O)C[C@@]21C [Example 12, N-(N-(N-(N-(2-Naphthoyl)-L-alanyl)-L-alanyl)-L-prolyl)-L-valine [11β,21-dihydroxy-3,20-dioxo-6α-methyl-17-propionyloxy-pregna-1,4-dien-21-yl] ester] (2Naphthoyl-AAPV-{Methylprednisolone(17-OCOEt)})
Esterases of Rat Skin
  Relative Hydrolysis Rate [%]: 4%

## CCC(=O)O[C@]1(C(=O)COC(=O)[C@@H](NC(=O)[C@@H]2CCCN2C(=O)[C@H](C)NC(=O)[C@H](C)NC(=O)C=Cc2ccccc2)C(C)C)CC[C@H]2[C@@H]3C[C@H](C)C4=CC(=O)C=C[C@]4(C)[C@H]3[C@@H](O)C[C@@]21C [Example 13] (X4-AAPV-{Methylprednisolone(17-OCOEt)})
Esterases of Rat Skin
  Relative Hydrolysis Rate [%]: 5%

## CCC(=O)O[C@]1(C(=O)COC(=O)[C@@H](NC(=O)[C@@H]2CCCN2C(=O)[C@H](C)NC(=O)[C@H](C)NS(=O)(=O)c2ccc(Cl)cc2)C(C)C)CC[C@H]2[C@@H]3C[C@H](C)C4=CC(=O)C=C[C@]4(C)[C@H]3[C@@H](O)C[C@@]21C [Example 14, N-(N-(N-(N-(4-Chlorobenzenesulfonyl)-L-alanyl)-L-alanyl)-L -prolyl)-L-valine [11β,21-dihydroxy-3,20-dioxo-6α-methyl-17-propionyloxy-pregna-1,4-dien-21-yl] ester] (X7-AAPV-{Methylprednisolone(17-OCOEt)})
Esterases of Rat Skin
  Relative Hydrolysis Rate [%]: 6%

## CCC(=O)O[C@]1(C(=O)COC(=O)[C@@H](NC(=O)[C@@H]2CCCN2C(=O)[C@H](C)NC(=O)[C@H](C)NC(=O)CCn2c3ccccc3c3ccccc32)C(C)C)CC[C@H]2[C@@H]3C[C@H](C)C4=CC(=O)C=C[C@]4(C)[C@H]3[C@@H](O)C[C@@]21C [Example 16, N-(N-(N-(N-(3-(Carbazol-9-yl)-propionyl)-L-alanyl)-L-alanyl)-L -prolyl)-L-valine [11β,21-dihydroxy-3,20-dioxo-6α-methyl-17-propionyloxy-pregna-1,4-dien-21-yl] ester] (X6-AAPV-{Methylprednisolone(17-OCOEt)})
Esterases of Rat Skin
  Relative Hydrolysis Rate [%]: 3%

## CCC(=O)O[C@]1(C(=O)COC(=O)[C@@H](NC(=O)[C@@H]2CCCN2C(=O)[C@H](C)NC(=O)[C@H](C)NC(=O)CN2C(=O)c3ccccc3C2=O)C(C)C)CC[C@H]2[C@@H]3C[C@H](C)C4=CC(=O)C=C[C@]4(C)[C@H]3[C@@H](O)C[C@@]21C [Example 17, N-(N-(N-(N-(N-(Phthaloyl)-glycyl)-L-alanyl)-L-alanyl)-L-prolyl) -L-valine [11β,21-dihydroxy-3,20-dioxo-6α-methyl-17-propionyloxy-pregna-1,4-dien-21-yl] ester] (Phthalimidoacetyl-AAPV-{Methylprednisolone(17-OCOEt)})
Esterases of Rat Skin
  Relative Hydrolysis Rate [%]: 49%

## CCC(=O)O[C@]1(C(=O)COC(=O)[C@@H](NC(=O)[C@@H]2CCCN2C(=O)[C@H](C)NC(=O)[C@H](C)NC(=O)C(C)(C)NC(=O)OCC2c3ccccc3-c3ccccc32)C(C)C)CC[C@H]2[C@@H]3C[C@H](C)C4=CC(=O)C=C[C@]4(C)[C@H]3[C@@H](O)C[C@@]21C [Example 18, N-(N-(N-(N-(N-((9H-Fluoren-9-ylmethoxy)carbonyl)-2-amino-2-methyl-propionyl)-L-alanyl)-L-alanyl)-L-prolyl)-L-valine [11β,21-dihydroxy-3,20-dioxo-6α-methyl-17-propionyloxy-pregna-1,4-dien-21-yl] ester] (Fmoc-[Aib]AAPV-{Methylprednisolone(17-OCOEt)})
Leukocyte Elastase
  Relative Hydrolysis Rate [%]: 130%

## CC(C)[C@H](NC(=O)[C@@H]1CCCN1C(=O)[C@H](C)NC(=O)[C@H](C)NC(=O)OC(C)(C)C)C(=O)OCC(=O)[C@H]1[C@H](C)C[C@H]2[C@@H]3C[C@H](F)C4=CC(=O)C=C[C@]4(C)[C@H]3[C@@H](O)C[C@@]21C [Example 32, N-(N-(N-(N-((1,1-Dimethyl)-ethoxycarbonyl)-L-alanyl)-L-alanyl)-L -prolyl)-L-valine [6α-fluoro-11β,21-dihydroxy-16α-methyl-3,20dioxo-pregna-1,4-dien-21-yl] ester] (Boc-AAPV-X2)
Leukocyte Elastase
  Relative Hydrolysis Rate [%]: 380%

## CCCCC(=O)O[C@]1(C(=O)COC(=O)[C@@H](NC(=O)[C@@H]2CCCN2C(=O)[C@H](C)NC(=O)[C@H](C)NC(=O)OC(C)(C)C)C(C)C)[C@@H](C)C[C@H]2[C@@H]3CCC4=CC(=O)C=C[C@]4(C)[C@@]3(F)[C@@H](O)C[C@@]21C [Example 38, N-(N-(N-(N-((1,1-Dimethyl)ethoxycarbonyl)-L-alanyl)-L-alanyl)-L -prolyl)-L-valine [9α-fluoro-11β,21-dihydroxy-16β-methyl-3,20-dioxo-17-valeroyloxy-pregna-1,4-dien-21-yl] ester]
Esterases of Rat Skin
  Relative Hydrolysis Rate [%]: 0%

## COC(=O)CCC(=O)N[C@@H](C)C(=O)N[C@@H](C)C(=O)N1CCC[C@H]1C(=O)N[C@H](C(=O)CCl)C(C)C [MeO-succinyl-Ala-Ala-Pro-Val-chloromethylketone, reference compound] (MeOSuc-AAPV-CH2Cl)
Leukocyte Elastase; addition of the specific elastase inhibitor to granulocyte lysate
  Inhibition of the cleavage of the prodrugs: 90%
